Laboratory results: PubChem BioAssay AID1963871 (Molecular Pharmacology Branch, DTP, NCI, 2024)

System: KRAS-mutant PDC multicell tumor spheroid viability
Assay: Anticancer human tumor 521955-158-R2-J5-PDC patient-derived pancreatic carcinoma cell line growth inhibition [KRAS2]
Details: for viability, T/C: stronger effect = lower value
How it was run: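 KRAS-mutant tumor cells were grown as spheroids with HUVEC endothelial cells and human MSCs as stroma. Targeted agents were tested alone and with KRAS pathway inhibitors. Doses started at or near clinical Cmax, or 10 microM, descending half-log.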

[1] = curve of first compound, second compound 0.1 µM
[2] = curve of first compound, second compound 0.316 µM
[3] = curve of first compound, second compound 1 µM
[4] = curve of first compound, second compound 3.16 µM
[5] = curve of first compound, second compound 10 µM
[6] = second compound 0.1 µM, first compound 0.000316 µM
[7] = second compound 0.1 µM, first compound 0.001 µM
[8] = second compound 0.1 µM, first compound 0.00316 µM
[9] = second compound 0.1 µM, first compound 0.01 µM
[10] = second compound 0.1 µM, first compound 0.0316 µM
[11] = second compound 0.316 µM, first compound 0.000316 µM
[12] = second compound 0.316 µM, first compound 0.001 µM
[13] = second compound 0.316 µM, first compound 0.00316 µM
[14] = second compound 0.316 µM, first compound 0.01 µM
[15] = second compound 0.316 µM, first compound 0.0316 µM
[16] = second compound 1 µM, first compound 0.000316 µM
[17] = second compound 1 µM, first compound 0.001 µM
[18] = second compound 1 µM, first compound 0.00316 µM
[19] = second compound 1 µM, first compound 0.01 µM
[20] = second compound 1 µM, first compound 0.0316 µM
[21] = second compound 3.16 µM, first compound 0.000316 µM
[22] = second compound 3.16 µM, first compound 0.001 µM
[23] = second compound 3.16 µM, first compound 0.00316 µM
[24] = second compound 3.16 µM, first compound 0.01 µM
[25] = second compound 3.16 µM, first compound 0.0316 µM
[26] = second compound 10 µM, first compound 0.000316 µM
[27] = second compound 10 µM, first compound 0.001 µM
[28] = second compound 10 µM, first compound 0.00316 µM
[29] = second compound 10 µM, first compound 0.01 µM
[30] = second compound 10 µM, first compound 0.0316 µM
[31] = second compound 0.1 µM, first compound 0.1 µM
[32] = second compound 0.316 µM, first compound 0.1 µM
[33] = second compound 1 µM, first compound 0.1 µM
[34] = second compound 3.16 µM, first compound 0.1 µM
[35] = second compound 10 µM, first compound 0.1 µM
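Note: viability read after seven days of drug exposure.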

For CC(=O)Nc1cccc(-n2c(=O)n(C3CC3)c(=O)c3c(Nc4ccc(I)cc4F)n(C)c(=O)c(C)c32)c1 + CC1OCC2(CCN(c3cnc(Sc4ccnc(N)c4Cl)c(N)n3)CC2)C1N, which IC50 [1] is on record?
Its IC50 is 0.146 nM.

What about the IC50 [2] of the same molecule?
Its IC50 is less than 0.1 nM.

What about the IC50 [3] of the same molecule?
Its IC50 is less than 0.1 nM.

And the IC50 [4]?
The IC50 was less than 0.1 nM.

What about the IC50 [5] of the same molecule?
Its IC50 is less than 0.1 nM.

What about the viability, T/C (second compound 0.1 µM, first compound 0.0001 µM) of the same molecule?
Its viability, T/C is 59%.

And the viability, T/C [6]?
The viability, T/C was 29.4%.

What about the viability, T/C [7] of the same molecule?
The viability, T/C was 29.3%.

What about the viability, T/C [8] of the same molecule?
Its viability, T/C is 25.3%.

What about the viability, T/C [9] of the same molecule?
Its viability, T/C is 21.4%.

And the viability, T/C [10]?
Its viability, T/C is 13.1%.

And the viability, T/C (second compound 0.316 µM, first compound 0.0001 µM)?
Its viability, T/C is 44.9%.

And the viability, T/C [11]?
The viability, T/C was 32.9%.

And the viability, T/C [12]?
The viability, T/C was 25.4%.

What about the viability, T/C [13] of the same molecule?
The viability, T/C was 22.7%.

And the viability, T/C [14]?
Its viability, T/C is 18.1%.

And the viability, T/C [15]?
Its viability, T/C is 12.4%.

What about the viability, T/C (second compound 1 µM, first compound 0.0001 µM) of the same molecule?
The viability, T/C was 40.3%.

What about the viability, T/C [16] of the same molecule?
The viability, T/C was 35.8%.

And the viability, T/C [17]?
Its viability, T/C is 26.9%.

And the viability, T/C [18]?
Its viability, T/C is 24.2%.

And the viability, T/C [19]?
The viability, T/C was 16.8%.

What about the viability, T/C [20] of the same molecule?
The viability, T/C was 9.6%.

What about the viability, T/C (second compound 3.16 µM, first compound 0.0001 µM) of the same molecule?
The viability, T/C was 40.9%.

What about the viability, T/C [21] of the same molecule?
Its viability, T/C is 32.5%.

And the viability, T/C [22]?
Its viability, T/C is 25.2%.

What about the viability, T/C [23] of the same molecule?
Its viability, T/C is 21.1%.

And the viability, T/C [24]?
Its viability, T/C is 15.3%.

What about the viability, T/C [25] of the same molecule?
Its viability, T/C is 12.7%.

And the viability, T/C (second compound 10 µM, first compound 0.0001 µM)?
Its viability, T/C is 39.9%.

What about the viability, T/C [26] of the same molecule?
The viability, T/C was 34%.

What about the viability, T/C [27] of the same molecule?
Its viability, T/C is 23.3%.

And the viability, T/C [28]?
The viability, T/C was 18.5%.

What about the viability, T/C [29] of the same molecule?
The viability, T/C was 15.1%.

And the viability, T/C [30]?
The viability, T/C was 11.6%.

What does the source list for CCNC(=O)CC1N=C(c2ccc(Cl)cc2)c2cc(OC)ccc2-n2c(C)nnc21 (stereo unspecified) + C=CC(=O)N1CCN(c2nc(=O)n(-c3c(C)ccnc3C(C)C)c3nc(-c4c(O)cccc4F)c(F)cc23)C(C)C1?
IC50 [1]: 474 nM; IC50 [2]: 1180 nM; IC50 [3]: 1100 nM; IC50 [4]: 741 nM; IC50 [5]: 169 nM; viability, T/C [10]: 99.4%; viability, T/C [31]: 93.4%; viability, T/C (second compound 0.1 µM, first compound 0.316 µM): 55.3%; viability, T/C (second compound 0.1 µM, first compound 1 µM): 41.1%; viability, T/C (second compound 0.1 µM, first compound 3.16 µM): 39.9%; viability, T/C (second compound 0.1 µM, first compound 10 µM): 35.7%; viability, T/C [15]: 119%; viability, T/C [32]: 98.4%; viability, T/C (second compound 0.316 µM, first compound 0.316 µM): 72.2%; viability, T/C (second compound 0.316 µM, first compound 1 µM): 50%; viability, T/C (second compound 0.316 µM, first compound 3.16 µM): 43.7%; viability, T/C (second compound 0.316 µM, first compound 10 µM): 37.1%; viability, T/C [20]: 120%; viability, T/C [33]: 109%; viability, T/C (second compound 1 µM, first compound 0.316 µM): 77%; viability, T/C (second compound 1 µM, first compound 1 µM): 52.3%; viability, T/C (second compound 1 µM, first compound 3.16 µM): 38.9%; viability, T/C (second compound 1 µM, first compound 10 µM): 35.8%; viability, T/C [25]: 101%; viability, T/C [34]: 86.7%; viability, T/C (second compound 3.16 µM, first compound 0.316 µM): 63%; viability, T/C (second compound 3.16 µM, first compound 1 µM): 45.4%; viability, T/C (second compound 3.16 µM, first compound 3.16 µM): 39.1%; viability, T/C (second compound 3.16 µM, first compound 10 µM): 37.5%; viability, T/C [30]: 66.5%; viability, T/C [35]: 58.6%; viability, T/C (second compound 10 µM, first compound 0.316 µM): 39.4%; viability, T/C (second compound 10 µM, first compound 3.16 µM): 29%; viability, T/C (second compound 10 µM, first compound 10 µM): 31.1%

What does the source list for Cn1ncnc1[C@H]1c2n[nH]c(=O)c3cc(F)cc(c23)N[C@@H]1c1ccc(F)cc1 + CNCc1ccccc1-c1csc(C(C)Nc2nc(C)nc3cc(OC)c(OC)cc23)c1?
IC50 [1]: > 100 nM; IC50 [2]: > 100 nM; IC50 [3]: > 100 nM; IC50 [4]: < 0.316 nM; IC50 [5]: < 0.316 nM; viability, T/C [6]: 101%; viability, T/C [7]: 94.8%; viability, T/C [8]: 84.5%; viability, T/C [9]: 80.2%; viability, T/C [10]: 81.7%; viability, T/C [31]: 81%; viability, T/C [11]: 104%; viability, T/C [12]: 81.2%; viability, T/C [13]: 82.1%; viability, T/C [14]: 76.7%; viability, T/C [15]: 81.8%; viability, T/C [32]: 80.3%; viability, T/C [16]: 114%; viability, T/C [17]: 119%; viability, T/C [18]: 112%; viability, T/C [19]: 93.8%; viability, T/C [20]: 91.5%; viability, T/C [33]: 89.6%; viability, T/C [21]: 2.53%; viability, T/C [22]: 1.22%; viability, T/C [23]: 2.97%; viability, T/C [24]: 1.01%; viability, T/C [25]: 0.7%; viability, T/C [34]: 0.26%; viability, T/C [26]: 0.78%; viability, T/C [27]: 0.71%; viability, T/C [28]: 0.43%; viability, T/C [29]: 0.21%; viability, T/C [30]: 0.16%; viability, T/C [35]: 1.36%

For CC(C)n1nc(-c2ccc3oc(N)nc3c2)c2c(N)ncnc21, which viability, T/C (compound 0.000316 µM) is on record?
Its viability, T/C is 101% [middle of 5 runs].

What about the viability, T/C (compound 0.001 µM) of the same molecule?
The viability, T/C was 87.6% [middle of 5 runs].

And the viability, T/C (compound 0.00316 µM)?
Its viability, T/C is 66.9% [middle of 5 runs].

And the viability, T/C (compound 0.01 µM)?
Its viability, T/C is 48.9% [middle of 5 runs].

What about the viability, T/C (compound 0.0316 µM) of the same molecule?
Its viability, T/C is 35.8% [middle of 5 runs].

What about the viability, T/C (compound 0.1 µM) of the same molecule?
Its viability, T/C is 25.9% [middle of 5 runs].

And the IC50 (curve of compound)?
Its IC50 is 9.42 nM [middle of 5 runs].
